# Literature values in patent US6629995B1, “Camptothecin conjugates” (priority 2000, dated 2003).
# How the values were obtained:
# [1] = tested on: human colon cancer xenografts; conditions: mouse, in vivo
# [2] = administered intravenously
# [3] = tested on: nontumorigenic and tumorigenic human cells
# human tumor xenografts = conditions: nude mice
# [4] = tested on: beta cells of the pancreas; conditions: in vivo
compound,measurement,setting,value
"CC[C@@]1(O)C(=O)OCc2c1cc1n(c2=O)Cc2cc3cc4c(cc3nc2-1)OCO4 [10,11 MD, 10,11-Methylendioxy-20(S)-Camptothecin]",anticancer activity against human colon cancer xenografts,[1],high anticancer activity
"CC[C@@](O)(C(=O)[O-])c1cc2n(c(=O)c1CO)Cc1cc3ccccc3nc1-2.[Na+] [CPT Na+, camptothecin sodium salt]",potency in clinical trials,[2],low potency
same,toxicity in clinical trials,[2],high toxicity
"CC[C@@]1(O)C(=O)OCc2c1cc1n(c2=O)Cc2cc3ccccc3nc2-1 [CPT, 20(S)-camptothecin]",solubility in water,,insoluble in water
same,effect on nontumorigenic cells,[3]; nontumorigenic human cells in vitro,cytostatic
same,effect on tumorigenic cells,[3]; tumorigenic human cells in vitro,cytotoxic
"CC[C@@]1(O)C(=O)OCc2c1cc1n(c2=O)Cc2cc3c(N)cccc3nc2-1 [Example 9AC, 9-Amino-20(S)-Camptothecin]",anticancer activity against human colon cancer xenografts,[1],high anticancer activity
"CC[C@@]1(O)C(=O)OCc2c1cc1n(c2=O)Cc2cc3c([N+](=O)[O-])cccc3nc2-1 [Example 9NC, 9-nitrocamptothecin]",activity against human tumor xenograft models,human tumor xenografts,high activity
CN(N=O)C(=O)N[C@@H]1[C@@H](O)[C@H](O)[C@@H](CO)O[C@@H]1O [Streptozoticin],accumulation in tissue,[4],preferentially accumulate in the beta cells of the pancreas
